Data published in patent US5061794A, “Cephalosporin derivatives, and antibacterial agents” (priority 1986, dated 1991).
Where two headings read alike, the source gives them in different places.

Tests used:
Ps. cepacia 23 = test: in vitro antibacterial activity, agar plate dilution method (MIC); format: cell-based, Pseudomonas cepacia; settings: read-out: Minimum Inhibitory Concentration (MIC)
Summary of the method: (§1)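 MIC in μg/ml, read after 16 h at 37° C. on Mueller Hinton agar carrying graded compound levels; inoculum 10^6 CFU/ml from overnight Mueller Hinton broth.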

A. calcoaceticus No. 4 = test: as above; format: cell-based, Acinetobacter calcoaceticus; settings: Acinetobacter calcoaceticus, NO.4, 16 h, 10^6 CFU/ml
Summary of the method: as §1

Ps. aeruginosa IF03445 = test: as above; format: cell-based, Pseudomonas aeruginosa; settings: Pseudomonas aeruginosa, 10^6 CFU/ml
Summary of the method: as §1

Ps. aeruginosa AKR17 = test: as above; format: cell-based, Pseudomonas aeruginosa; settings: Pseudomonas aeruginosa, read-out: Minimum Inhibitory Concentration (MIC)
Summary of the method: as §1

Ps. aeruginosa AK 109 = test: as above; format: cell-based, Pseudomonas aeruginosa; settings: Pseudomonas aeruginosa, AK109, 16 h
Summary of the method: as §1

M. morganii GN5407 = test: as above; format: cell-based; settings: Morganella morganii, GN5407, 16 h, read-out: Minimum Inhibitory Concentration (MIC), *M. morganii GN5407, lactamase-producing strain; 10^6 CFU/ml
Summary of the method: as §1

P. vulgaris HX-19 = test: as above; format: cell-based; settings: Proteus vulgaris, HX19, 16 h, read-out: Minimum Inhibitory Concentration (MIC)
Summary of the method: as §1

K. pneumoniae PCI-602 = test: as above; format: cell-based; settings: Klebsiella pneumoniae, PCI602, 16 h, 10^6 CFU/ml
Summary of the method: as §1

E. cloacae Nek 39 = test: as above; format: cell-based; settings: Enterobacter cloacae, NEK39, 16 h, read-out: Minimum Inhibitory Concentration (MIC), *E. cloacae Nek 39, lactamase-producing strain; 10^6 CFU/ml
Summary of the method: as §1

K. oxytoca GN10650 = test: as above; format: cell-based; settings: Klebsiella oxytoca, 10^6 CFU/ml
Summary of the method: as §1

S. marcescens No. 16-2 = test: as above; format: cell-based; settings: Serratia marcescens, NO.162, 16 h
Summary of the method: as §1

E. cloacae 963 = test: as above; format: cell-based; settings: 10^6 CFU/ml
Summary of the method: as §1

S. marcescens IAM 1184 = test: as above; format: cell-based; settings: Serratia marcescens, IAM1184, 16 h, read-out: Minimum Inhibitory Concentration (MIC)
Summary of the method: as §1

P. vulgaris No. 33 = test: as above; format: cell-based; settings: Proteus vulgaris, NO.33, 16 h, read-out: Minimum Inhibitory Concentration (MIC), *P. vulgaris No. 33, lactamase-producing strain; 10^6 CFU/ml
Summary of the method: as §1

E. coli GN5482 = test: as above; format: cell-based; settings: Escherichia coli, 10^6 CFU/ml
Summary of the method: as §1

S. aureus 209P NIHJ-JC1 = test: as above; format: cell-based; settings: Staphylococcus aureus, 16 h, read-out: Minimum Inhibitory Concentration (MIC)
Summary of the method: as §1

E. coli NIHJ JC2 = test: as above; format: cell-based; settings: Escherichia coli, NIHJJC2, 16 h, read-out: Minimum Inhibitory Concentration (MIC), E. coli NIHJ JC2, 10^6 CFU/ml, 37° C.
Summary of the method: as §1

K. pneumoniae No. 42 = test: as above; format: cell-based; settings: Klebsiella pneumoniae, NO.42, 16 h, read-out: Minimum Inhibitory Concentration (MIC), *K. pneumoniae No. 42, lactamase-producing strain; 10^6 CFU/ml
Summary of the method: as §1

E. coli CSH(RE45) = test: microbe, parasite or virus in culture; format: cell-based; settings: Escherichia coli, 16 h, read-out: Minimum Inhibitory Concentration (MIC), *E. coli CSH(RE45), lactamase-producing strain; 10^6 CFU/ml
Summary of the method: as §1

E. coli CSH2 (RK1) = test: microbe, parasite or virus in culture; format: cell-based; settings: Escherichia coli, 16 h, read-out: Minimum Inhibitory Concentration (MIC), *E. coli CSH2 (RK1), lactamase-producing strain; 10^6 CFU/ml
Summary of the method: as §1

[1] = A. calcoaceticus No. 4, read-out: Minimum Inhibitory Concentration (MIC)
[2] = 16 h, Ps. aeruginosa IF03445, read-out: Minimum Inhibitory Concentration (MIC)
[3] = 16 h, Ps. aeruginosa AKR17, 10^6 CFU/ml
[4] = Ps. aeruginosa AK 109, 10^6 CFU/ml, read-out: Minimum Inhibitory Concentration (MIC)
[5] = K. pneumoniae PCI-602, read-out: Minimum Inhibitory Concentration (MIC)
[6] = GN10650, 16 h, read-out: Minimum Inhibitory Concentration (MIC), *K. oxytoca GN10650, lactamase-producing strain
[7] = read-out: Minimum Inhibitory Concentration (MIC)
[8] = Enterobacter cloacae, 963, 16 h, read-out: Minimum Inhibitory Concentration (MIC), E. cloacae 963
[9] = GN5482, 16 h, read-out: Minimum Inhibitory Concentration (MIC), *E. coli GN5482, lactamase-producing strain
[10] = Burkholderia cepacia, 16 h, Ps. cepacia 23, 10^6 CFU/ml
[11] = read-out: Minimum Inhibitory Concentration (MIC), A. calcoaceticus No. 4
[12] = IF03445, 16 h, read-out: Minimum Inhibitory Concentration (MIC), Ps. aeruginosa IF03445
[13] = read-out: Minimum Inhibitory Concentration (MIC), K. pneumoniae PCI-602
[14] = Enterobacter cloacae, 16 h, E. cloacae 963, read-out: Minimum Inhibitory Concentration (MIC)
[15] = S. marcescens IAM 1184, 10^6 CFU/ml
[16] = S. aureus 209P NIHJ-JC1, 10^6 CFU/ml, 37° C., 16 hours

Row | Compound | MIC (Ps. cepacia 23; Burkholderia cepacia, 23, 16 h) | MIC (A. calcoaceticus No. 4; [1]) | MIC (Ps. aeruginosa IF03445; [2]) | MIC (Ps. aeruginosa AKR17; [3]) | MIC (Ps. aeruginosa AK 109; [4]) | MIC (M. morganii GN5407) | MIC (P. vulgaris HX-19; P. vulgaris HX-19, 10^6 CFU/ml) | MIC (K. pneumoniae PCI-602; [5]) | MIC (E. cloacae Nek 39) | MIC (K. oxytoca GN10650; [6]) | MIC (S. marcescens No. 16-2; [7]) | MIC (E. cloacae 963; [8]) | MIC (S. marcescens IAM 1184) | MIC (P. vulgaris No. 33) | MIC (E. coli GN5482; [9]) | MIC (E. coli NIHJ JC2) | MIC (K. pneumoniae No. 42) | MIC (E. coli CSH(RE45)) | MIC (E. coli CSH2 (RK1)) | MIC (S. aureus 209P NIHJ-JC1; [16]) | further results
1 | CC(C)(O/N=C(\C(=O)N[C@@H]1C(=O)N2C(C(=O)O)=C(CSc3nc(-c4ccc(O)cc4)cs3)CS[C@H]12)c1csc(N)n1)C(=O)O [compound 12, disodium 7β-[2-(2-aminothiazol-4-yl)-2-(1-carboxylate-1-methylethoxyimino)acetamido]-3-[4-(4-hydroxyphenyl)thiazol-2-yl]thiomethyl-3-cephem-4-carboxylate, reference compound] | 3.12 µg/mL | 100 µg/mL | 50 µg/mL | > 100 µg/mL | 25 µg/mL | 1.56 µg/mL | < 0.006 µg/mL | 0.05 µg/mL | 12.5 µg/mL | 1.56 µg/mL | 12.5 µg/mL | 3.12 µg/mL | 0.78 µg/mL | 0.39 µg/mL | 1.56 µg/mL | 3.12 µg/mL | 3.12 µg/mL | 1.56 µg/mL | 1.56 µg/mL | – | MIC (S. aureus 209P NIHJ-JC1): 3.12 µg/mL
2 | Nc1nc(/C(=N/OC2(C(=O)O)CC2)C(=O)N[C@@H]2C(=O)N3C(C(=O)O)=C(CSc4ncc(-c5ccc(O)c(O)c5)o4)CS[C@H]23)cs1 [Ex. 66, disodium 7β-[2-(2-aminothiazol-4-yl)-2-(1-carboxylate-1-cyclopropoxyimino)acetamido]-3-[5-(3,4-dihydroxyphenyl)oxazol-2-yl]thiomethyl-3-cephem-4-carboxylate] | – | – | – | – | – | 0.1 µg/mL | – | – | 0.1 µg/mL | 0.1 µg/mL | 3.12 µg/mL | – | – | 0.025 µg/mL | 1.56 µg/mL | 0.78 µg/mL | 0.1 µg/mL | 0.05 µg/mL | 0.0125 µg/mL | 25 µg/mL | MIC (Ps. cepacia 23; [10]): < 0.006 µg/mL; MIC (A. calcoaceticus No. 4; [11]): 0.1 µg/mL; MIC (Ps. aeruginosa IF03445; [12]): 0.78 µg/mL; MIC (Ps. aeruginosa AKR17; AKR17, 16 h): 3.12 µg/mL; MIC (Ps. aeruginosa AK 109; [7]): 0.39 µg/mL; MIC (P. vulgaris HX-19): 0.0125 µg/mL; MIC (K. pneumoniae PCI-602; [13]): < 0.006 µg/mL; MIC (E. cloacae 963; [14]): 0.2 µg/mL; MIC (S. marcescens IAM 1184; [15]): 0.05 µg/mL
3 | CC(=O)Oc1ccc(-c2nc(SCC3=C(C(=O)O)N4C(=O)C(NC(=O)C(=NOC5(C(=O)O)CC5)c5csc(N)n5)C4SC3)sc2CC(=O)O)cc1OC(C)=O (centres unmarked) [Example 60 (II), trisodium 3-[4-(3,4-diacetoxyphenyl)-5-carboxylate-methylthiazol-2-yl]thiomethyl-78-[2-(2-aminothiazol-4-yl)-2-(1-carboxylate-1-cyclopropoxyimino)acetamido]-3-cephem-4-carboxylate] | – | – | – | – | – | 0.1 µg/mL | < 0.006 µg/mL | – | 0.2 µg/mL | 0.1 µg/mL | – | – | – | 0.025 µg/mL | 0.78 µg/mL | 0.78 µg/mL | 0.1 µg/mL | 3.12 µg/mL | 0.0125 µg/mL | 25 µg/mL | MIC (Ps. cepacia 23; [10]): < 0.006 µg/mL; MIC (A. calcoaceticus No. 4; [11]): 0.1 µg/mL; MIC (Ps. aeruginosa IF03445; [12]): 0.78 µg/mL; MIC (Ps. aeruginosa AKR17; AKR17, 16 h): 3.12 µg/mL; MIC (Ps. aeruginosa AK 109; read-out: Minimum Inhibitory Concentration (MIC), Ps. aeruginosa AK 109, 10^6 CFU/ml): 1.56 µg/mL; MIC (K. pneumoniae PCI-602; [13]): < 0.006 µg/mL; MIC (S. marcescens No. 16-2; read-out: Minimum Inhibitory Concentration (MIC), *S. marcescens No. 16-2, lactamase-producing strain, 10^6 CFU/ml): 0.78 µg/mL; MIC (E. cloacae 963; [14]): 0.2 µg/mL; MIC (S. marcescens IAM 1184; [15]): 0.05 µg/mL
4 | CO/N=C(\C(=O)N[C@@H]1C(=O)N2C(C(=O)O)=C(CSc3nc(-c4ccc(OC(C)=O)cc4)c(CC(=O)O)s3)CS[C@H]12)c1csc(N)n1 [compound 18, disodium 3-[4-(4-acetoxyphenyl)-5-carboxylatemethylthiazol-2-yl]thiomethyl-7δ-[2-(2-aminothiazol-4-yl)-2-methoxyiminoacetamido]-3-cephem-4-carboxylate, reference compound] | 12.5 µg/mL | 100 µg/mL | 100 µg/mL | > 100 µg/mL | > 100 µg/mL | 0.39 µg/mL | < 0.006 µg/mL | 0.2 µg/mL | 12.5 µg/mL | – | – | 0.78 µg/mL | 0.78 µg/mL | 0.1 µg/mL | – | 0.78 µg/mL | 0.78 µg/mL | 1.56 µg/mL | 0.78 µg/mL | 3.12 µg/mL | MIC (K. oxytoca GN10650; 16 h, *K. oxytoca GN10650, lactamase-producing strain, read-out: Minimum Inhibitory Concentration (MIC)): 25 µg/mL; MIC (S. marcescens No. 16-2; *S. marcescens No. 16-2, lactamase-producing strain, 10^6 CFU/ml, read-out: Minimum Inhibitory Concentration (MIC)): 100 µg/mL; MIC (E. coli GN5482; 16 h, *E. coli GN5482, lactamase-producing strain, read-out: Minimum Inhibitory Concentration (MIC)): 3.12 µg/mL
